Where two headings read alike, the source gives them in different places.
System: HBV viral load (viral production from HepAD38 cells)
Assay: Activity of test compounds on viral production from HepAD38 cells (viral load by qPCR of HBV core sequence)
Assay type: cell-based
Conditions: viral load lowering, 5 days, qPCR of supernatant, read-out: VL HepAD38 EC50 range
Experimental: Assay Measuring Activity of Test Compounds on Viral Production from HepAD38 Cells
HepAD38 cells grown in a T-150 flask (Corning, cat #: 430825) with Growth Medium (DMEM/F12 (1:1) (Hyclone, cat #: SH30023.02), 1× Pen/Strep (Invitrogen, cat #: 15140-122), 10% FBS (Tissue Culture Biologics, cat #: 101), 250 μg/mL G418 (Alfa Aesar, cat #: J62671), 1 μg/mL Tetracycline (Teknova, cat #: T3320)) were detached with 0.25% trypsin-EDTA (Invitrogen, cat #: 25200-056). Tetracycline-free treatment medium (15 mL DMEM/F12 (1:1) 1× Pen/step, with 2% FBS, Tet-system approved (Clontech, cat #: 631106) were then added to mix, transferred into a 50 ml conical tube (Falcon, cat #: 21008-918) and spun at 1300 rpm for 5 min. Pelleted cells were then re-suspended/washed with 50 mL of 1×DPBS (Invitrogen, cat #: 14190-136) 2 times and 50 mL treatment medium twice. HepAD38 cells were then re-suspended with 10 mL of treatment medium, syringed and counted. Wells of 96-well clear bottom TC plate (Corning, cat #: 3904) were seeded at 50,000 cells/well in 180 μL of treatment medium, and 20 μL of either 10% DMSO (Sigma, cat #: D4540) as controls or a 10× solution of test compounds in 10% DMSO in treatment media was added for a final compound concentration starting at 10 μM, and plates were incubated in 5% CO2 incubator at 37° C. for 5 days.
Subsequently viral load production was assayed by quantitative PCR (qPCR) of the HBV core sequence. PCR reaction mixture containing forward primers HBV-f 5′-CTGTGCCTTGGGTGGCITT-3′ (IDT DNA), Reverse primers HBV-r 5′-[…]-3′ (IDT DNA), Fluorescent TaqMan™ Probes HBV-probe 5′-FAM/AGCTCCAAA/ZENMITCTITATAAGGGTCGATGTC/3IABkFQ-3′ (IDT DNA), 10 μL/well of PerfeCTa® qPCR ToughMix® (Quanta Biosciences, Cat #: 95114-05K), and 6 μL/well of DEPC water (Alfa Aesar, cat #: J62087) was prepared. Four μL of supernatant was added to 16 μL of the reaction mixture in a qPCR plate (Applied Biosytems, Cat #: 4309849), sealed with a film (Applied Biosystems, Cat #: 4311971), centrifuged for a few seconds, and subsequently run on an Applied Biosystems VIIA7. The PCR mixture was incubated at 45° C. for 5 min, then 95° C. for 10 min, followed by 40 cycles of 10 seconds at 95° C. and 20 seconds at 60° C. Viral load was quantified against known HBV DNA standards by using ViiA™ 7 Software. Viral load in the supernatant from wells with treated cells were compared against viral load in supernatant from DMSO control wells (3 per plate). Cell viability assay was performed with CellTiter-Glo Luminescent Cell Viability Assay (Promega, cat #: G7573) with modification. Mixed appropriate amount of CellTiter-Glo (CTG) 1×DPBS in a 1:1 ratio, added 100 uL of the mixture to each well followed completely removal of all supernatant in each well without touching cell surface. Incubated the plate at room temperature for 10 min on an orbital shaker, and then read the plate with a plate reader (TECAN M1000 or Envision). EC50 or CC50 values were calculated through curve-fitting of the four-parameter nonlinear-logistic-regression model (GraphPad Prism or Dotmatics). CC50 values were all >10 μM.

[1] = Hepatitis B virus, HePAD38, 120 h

| Structure (SMILES) | EC50 [1] | EC50 |
| --- | --- | --- |
| Cn1cnc(C2CC3CC(O)(c4cc(Cl)nn4C)CC3C2)c1C(=O)Nc1ccc(F)c(Cl)c1 (single isomer, unassigned) [Example 73, 4-(5-(3-Chloro-1-methyl-1H-pyrazol-5-yl)-5-hydroxyoctahydropentalen-2-yl)-N-(3-chloro-4-fluorophenyl)-1-methyl-1H-imidazole-5-carboxamide] | < 0.01 µM |  |
| Cn1cnc(C2CC3CC(O)(c4cc(C(C)(C)C)nn4C)CC3C2)c1C(=O)Nc1ccc(F)c(Cl)c1 (single isomer, unassigned) [Example 74] | < 0.01 µM |  |
| [2H]C([2H])([2H])C1(O)CC2CC(c3ncn(C)c3C(=O)Nc3ccc(F)c(Cl)c3)CC2C1 (single isomer, unassigned) [Example 80, N-(3-Chloro-4-fluorophenyl)-4(5-hydroxy-5-(methyl-d3)octahydropentalen-2-yl)-1-methyl-1H-imidazole-5-carboxamide] | 0.05 to 0.5 µM |  |
| Cn1cc(C2(O)CC3CC(c4ncn(C)c4C(=O)Nc4ccc(F)c(Cl)c4)CC3C2)c(C(F)(F)F)n1 (single isomer, unassigned) [Example 114, N-(3-Chloro-4-fluorophenyl)-4-(5-hydroxy-5-(1-methyl-3-(trifluoromethyl)-1H-pyrazol-4-yl)octahydropentalen-2-yl)-1-methyl-1H-imidazole-5-carboxamide] | < 0.01 µM |  |
| Cn1cnc(C2CC3CC(O)(Cn4cccn4)CC3C2)c1C(=O)Nc1ccc(F)c(Cl)c1 (single isomer, unassigned) [Example 128, 4-(5-((1H-pyrazol-1-yl)methyl)-5-hydroxyoctahydropentalen-2-yl)-N-(3-chloro-4-fluorophenyl)-1-methyl-1H-imidazole-5-carboxamide] | < 0.01 µM |  |
| Cn1cnc(C2CC3CC(O)(Cn4cccn4)CC3C2)c1C(=O)Nc1ccc(F)c(Cl)c1 (single isomer, unassigned) [Example 129, 4-(5-((1H-pyrazol-1-yl)methyl)-5-hydroxyoctahydropentalen-2-yl)-N-(3-chloro-4-fluorophenyl)-1-methyl-1H-imidazole-5-carboxamide] |  | 0.01 to 0.05 µM |
| CC(O)c1nn(C)cc1C1(O)CC2CC(c3ncn(C)c3C(=O)Nc3ccc(F)c(Cl)c3)CC2C1 (single isomer, unassigned) [Example 188, N-(3-Chloro-4-fluorophenyl)-4-(5-hydroxy-5-(3-(1-hydroxyethyl)-1-methyl-1H-pyrazol-4-yl)octahydropentalen-2-yl)-1-methyl-1H-imidazole-5-carboxamide] | < 0.01 µM |  |
| CC(O)c1nn(C)cc1C1(O)CC2CC(c3ncn(C)c3C(=O)Nc3ccc(F)c(Cl)c3)CC2C1 (single isomer, unassigned) [Example 189, N-(3-Chloro-4-fluorophenyl)-4-(5-hydroxy-5-(3-(1-hydroxyethyl)-1-methyl-1H-pyrazol-4-yl)octahydropentalen-2-yl)-1-methyl-1H-imidazole-5-carboxamide] |  | < 0.01 µM |
| Cn1cnc(C2CC3CC(O)(c4cc(OCC(O)CO)nn4C)CC3C2)c1C(=O)Nc1ccc(F)c(Cl)c1 (single isomer, unassigned) [Example 205, N-(3-Chloro-4-fluorophenyl)-4-(5-(3-(2,3-dihydroxypropoxy)-1-methyl-1H-pyrazol-5-yl)-5-hydroxyoctahydropentalen-2-yl)-1-methyl-1H-imidazole-5-carboxamide] | < 0.01 µM |  |
| Cn1cnc(C2CC3CC(O)(c4cc(OCC(O)CO)nn4C)CC3C2)c1C(=O)Nc1ccc(F)c(Cl)c1 (single isomer, unassigned) [Example 206, N-(3-Chloro-4-fluorophenyl)-4-(5-(3-(2,3-dihydroxypropoxy)-1-methyl-1H-pyrazol-5-yl)-5-hydroxyoctahydropentalen-2-yl)-1-methyl-1H-imidazole-5-carboxamide] |  | < 0.01 µM |
| CC(O)COc1cc(C2(O)CC3CC(c4ncn(C)c4C(=O)Nc4ccc(F)c(Cl)c4)CC3C2)n(C)n1 (single isomer, unassigned) [Example 209, N-(3-Chloro-4-fluorophenyl)-4-(5-hydroxy-5-(3-(2-hydroxypropoxy)-1-methyl-1H-pyrazol-5-yl)octahydropentalen-2-yl)-1-methyl-1H-imidazole-5-carboxamide] | < 0.01 µM |  |
| CC(O)COc1cc(C2(O)CC3CC(c4ncn(C)c4C(=O)Nc4ccc(F)c(Cl)c4)CC3C2)n(C)n1 (single isomer, unassigned) [Example 210, N-(3-Chloro-4-fluorophenyl)-4-(5-hydroxy-5-(3-(2-hydroxypropoxy)-1-methyl-1H-pyrazol-5-yl)octahydropentalen-2-yl)-1-methyl-1H-imidazole-5-carboxamide] |  | < 0.01 µM |
| Cn1cnc(C2CC3CC(O)(c4cccc(F)c4)CC3C2)c1C(=O)Nc1ccc(F)c(Cl)c1 (stereo not shown) [Example 6, N-(3-Chloro-4-fluorophenyl)-4-(5-(3-fluorophenyl)-5-hydroxyoctahydropentalen-2-yl)-1-methyl-1H-imidazole-5-carboxamide] | < 0.01 µM |  |
| Cn1cnc(C2CC3CC(O)(c4ccc(F)cc4)CC3C2)c1C(=O)Nc1ccc(F)c(Cl)c1 (stereo not shown) [Example 7, N-(3-Chloro-4-fluorophenyl)-4-(5-(4-fluorophenyl)-5-hydroxyoctahydropentalen-2-yl)-1-methyl-1H-imidazole-5-carboxamide] | < 0.01 µM |  |
| Cn1cnc(C2CC3CC(O)(c4ccccc4)CC3C2)c1C(=O)Nc1ccc(F)c(Cl)c1 (stereo not shown) [Example 8, N-(3-Chloro-4-fluorophenyl)-4-(5-hydroxy-5-phenyloctahydropentalen-2-yl)-1-methyl-1H-imidazole-5-carboxamide] | < 0.01 µM |  |
| Cn1cnc(C2CC3CC(O)(c4ccccn4)CC3C2)c1C(=O)Nc1ccc(F)c(Cl)c1 (stereo not shown) [Example 9, N-(3-Chloro-4-fluorophenyl)-4-(5-hydroxy-5-(pyridin-2-yl)octahydropentalen-2-yl)-1-methyl-1H-imidazole-5-carboxamide] | < 0.01 µM |  |
| Cn1cnc(C2CC3CC(O)(c4ccnn4C)CC3C2)c1C(=O)Nc1ccc(F)c(Cl)c1 (stereo not shown) [Example 10, N-(3-chloro-4-fluorophenyl)-4-(5-hydroxy-5-(1-methyl-1H-pyrazol-5-yl)octahydropentalen-2-yl)-1-methyl-1H-imidazole-5-carboxamide] | < 0.01 µM |  |
| Cn1cnc(C2CC3CC(O)(CS(=O)(=O)c4ccc(F)cc4)CC3C2)c1C(=O)Nc1ccc(F)c(Cl)c1 (stereo not shown) [Example 11, N-(3-Chloro-4-fluorophenyl)-4-(5-(((4-fluorophenyl)sulfonyl)methyl)-5-hydroxyoctahydropentalen-2-yl)-1-methyl-1H-imidazole-5-carboxamide] | 0.01 to 0.05 µM |  |
| Cn1cnc(C2CC3CC(O)(C(F)(F)F)CC3C2)c1C(=O)Nc1ccc(F)c(Cl)c1 (stereo not shown) [Example 12, N-(3-Chloro-4-fluorophenyl)-4-(5-hydroxy-5-(trifluoromethyl)octahydropentalen-2-yl)-1-methyl-1H-imidazole-5-carboxamide] | < 0.01 µM |  |
| Cn1cnc(C2CC3CC(N)CC3C2)c1C(=O)Nc1ccc(F)c(Cl)c1 (stereo not shown) [Example 13, 4-(5-Aminooctahydropentalen-2-yl)-N-(3-chloro-4-fluorophenyl)-1-methyl-1H-imidazole-5-carboxamide] | 0.01 to 0.05 µM |  |
| Cn1cnc(-c2ccc(C3CCC(c4ncn(C)c4C(=O)Nc4ccc(F)c(Cl)c4)C3)cc2)c1 (stereo not shown) [Example 14, N-(3-Chloro-4-fluorophenyl)-1-methyl-4-(3-(4-(1-methyl-1H-imidazol-4-yl)phenyl)cyclopentyl)-1H-imidazole-5-carboxamide] | < 0.01 µM |  |
| Cn1cnc(-c2ccc(C3CCC(c4ncn(C)c4C(=O)Nc4ccc(F)c(Cl)c4)C3)cc2)c1 (stereo not shown) [Example 15, N-(3-Chloro-4-fluorophenyl)-1-methyl-4-(3-(4-(1-methyl-1H-imidazol-4-yl)phenyl)cyclopentyl)-1H-imidazole-5-carboxamide] |  | < 0.01 µM |
